From US8278301B2, “2-alkylbenzoxazole carboxamides as 5HT3 modulators” (Albany Molecular Research, Inc., priority 2006, dated 2012)

Tests used:
[1] = target: T1, human 5-HT3 receptor (Homo sapiens, UniProt P46098); assay: Compound affinity for the human 5-HT3 receptor (Assay B), SPA radioligand binding with [9-methyl-3H]BRL-43694; design: purchased Perkin Elmer
T1 sequence (P46098 24-478): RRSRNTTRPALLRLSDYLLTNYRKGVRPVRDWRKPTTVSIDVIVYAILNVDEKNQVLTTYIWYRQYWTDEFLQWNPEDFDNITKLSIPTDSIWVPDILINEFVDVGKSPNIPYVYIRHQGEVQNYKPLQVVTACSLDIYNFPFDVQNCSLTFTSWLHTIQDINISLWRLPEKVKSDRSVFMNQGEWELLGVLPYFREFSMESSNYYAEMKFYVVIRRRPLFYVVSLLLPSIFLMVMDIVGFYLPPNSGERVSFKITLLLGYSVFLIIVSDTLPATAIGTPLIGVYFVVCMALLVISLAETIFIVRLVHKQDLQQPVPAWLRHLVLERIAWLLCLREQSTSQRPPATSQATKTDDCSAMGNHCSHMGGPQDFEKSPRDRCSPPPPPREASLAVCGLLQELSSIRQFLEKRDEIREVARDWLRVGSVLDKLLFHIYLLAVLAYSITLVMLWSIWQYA
Method: Compound Affinity for the Human 5-HT3 Receptor (Assay B)
The relative affinity of the various compounds for the human 5-HT3 receptor was measured in a radioligand binding assay, using a scintillation proximity assay (SPA) format. Test compounds were dissolved to 10 mM in 100% DMSO, then serially diluted at 10× assay concentrations in 100% DMSO in 96-well polypropylene plates and further diluted to 4× assay concentrations with the assay buffer. Samples were incubated in 50 mM Tris-HCl, pH 7.5, 3 mM MgCl2, 1 mM EDTA and 10% DMSO with 10 nM [9-methyl-3H]BRL-43694 (Perkin Elmer), 3 μg of human 5-HT3 receptor membranes (Perkin Elmer) and 0.5 mg/mL SPA beads (WGA PVT, Amersham Biosciences) in a final volume of 0.2 mL. Binding reactions were set up in wells of PicoPlates-96 (Perkin Elmer) by adding consecutively 50 μL of each competing compound or buffer, SPA beads, the radioligand and 5-HT3 receptor membranes. After 60-min incubation at room temperature on a Nutator mixer, plates were centrifuged for 15 min at 1,500 rpm, followed by incubation in the dark for 30 min. Radioactivity was counted in the TopCount microplate counter (Perkin Elmer) for 5 min. Total binding control contained buffer only; nonspecific binding was determined in the presence of 30 μM MDL-72222. Specific binding was determined by subtracting nonspecific binding from total binding. All experiments were performed in duplicate using ten concentrations of a competing ligand, with ondansetron included as a control in every run. IC50 values were determined from specific binding data using XLfit4.1 curve fitting software from IDBS Ltd. Ki values were then calculated from the Cheng-Prusoff equation.
(§1) In the table below, the assay in which the data were obtained is shown (as A, B. C, or D) along with the data.

[2] = target: T2, mouse 5-HT3 receptor (Mus musculus, UniProt P23979); assay: Compound affinity for the mouse 5-HT3 receptor (Assay C), [3H]-GR65630 radioligand binding, Novoscreen; conditions: Assay C; single concentration 100 nM, in duplicate; [3H]-GR65630; read-out: Mouse % Inhibition @ 100 nM
T2 construct: host or cells: mouse neuroblastoma cells (N1E-155 as printed)
T2 sequence (P23979 24-489): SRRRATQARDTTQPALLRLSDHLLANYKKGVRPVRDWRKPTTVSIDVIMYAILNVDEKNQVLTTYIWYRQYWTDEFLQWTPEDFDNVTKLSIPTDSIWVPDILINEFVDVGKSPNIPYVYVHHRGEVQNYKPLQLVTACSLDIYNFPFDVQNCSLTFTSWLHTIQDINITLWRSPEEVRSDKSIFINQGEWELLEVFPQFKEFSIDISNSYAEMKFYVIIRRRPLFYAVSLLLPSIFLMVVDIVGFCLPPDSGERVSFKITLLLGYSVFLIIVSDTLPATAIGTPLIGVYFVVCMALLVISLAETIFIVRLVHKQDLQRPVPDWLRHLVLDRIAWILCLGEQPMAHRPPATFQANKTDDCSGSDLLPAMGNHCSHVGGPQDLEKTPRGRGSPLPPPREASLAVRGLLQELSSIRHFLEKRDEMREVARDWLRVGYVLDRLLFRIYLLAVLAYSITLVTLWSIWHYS
Method: Compound Affinity for the Mouse 5-HT3Receptor (Assay C)
Compounds were tested by Novoscreen Biosciences Corporation, 7170 Standard Drive, Hanover, Md. in a radioligand binding assay using the mouse 5-HT3 receptor derived from mouse neuroblastoma cells and [^3H]-GR65630 (ligand). The non-specific binding determinant was MDL 72222. Compounds were tested at a single concentration of 100 nM in duplicate. Percent inhibition is reported. In order to evaluate the relative affinity of the various compounds for the 5-HT3 receptor, N1E-155 cell lines were developed to express the target protein. For binding, these cells were homogenized, centrifuged and washed with buffer (20 mM HEPES, 150 mM NaCl, pH 7.4) then suspended in 0.5 mL of buffer and [^3H]-GR65630 added at a concentration of 3.5×10^−10 M. An initial single concentration of 10^−7 M of the test compound was then added. Incubation was carried out at room temperature for 60 minutes at 25° C. then was terminated by rapid removal of the incubation medium. Radioactivity was assessed using liquid scintillation spectrophotometry after exposure to scintillation cocktail for at least three hours. […] Ki values were then calculated from the Cheng-Prusoff equation. In all of the above binding studies the non-specific determinant was MDL-72222 (1.0 μM).
as §1

[3] = target: T3, 5-HT3 receptors (Mus musculus, UniProt P23979); assay: Bezold-Jarisch assay in vivo: inhibition of serotonin induced bradycardia; conditions: 30 mg/kg orally, 60 min before 5-HT 0.5 mg/kg IV, pentobarbital-anesthetized
T3 construct: from tissue; host or cells: whole animal, CD-1(Crl.) mice
T3 sequence (P23979 24-489): T2 sequence (P23979 24-489)
Method: Bezold-Jarisch Assay in vivo. […] Arch. Int. Pharmacodyn. 277: 235-252, 1985]. Test substances and vehicle [2% Tween 80] were each administered orally (30 mg/kg) to a group of 5 male or female CD-1(Crl.) mice each weighing 24±2 g. A dosing volume of 10 mL/kg was used. Sixty minutes later, 5-HT (0.5 mg/kg IV)-induced bradycardia was recorded in pentobarbital (80 mg/kg IP, given 10 minutes before 5-HT)-anesthetized animals.

Compound | Ki [1] [nM] | inhibition at 0.1 µM [2] [%] | inhibition of 5-HT-induced bradycardia [3] [%]
O=C(N[C@@H]1CN2CCC1CC2)c1cccc2oc(C3CC3)nc12 [Example 2, (S)—N-(1-Azabicyclo[2.2.2]oct-3-yl)-2-cyclopropylbenzoxazole-4-carboxamide] | 11 | 87.7 | 80
CN1[C@@H]2CCC[C@H]1C[C@@H](NC(=O)c1cccc3oc(C4CC4)nc13)C2 [Example 1, Endo-N-(9-Methyl-9-azabicyclo[3.3.1]non-3-yl)-2-cyclopropylbenzoxazole-4-carboxamide] | 4.1 | 96.1 | 56
